Experimental data from PubChem BioAssay AID1259375 (The Scripps Research Institute Molecular Screening Center, 2018).
Activity calls are given as the source filed them. How the calls were made is not given here.

These compounds were tested against Microphthalmia-associated transcription factor (Homo sapiens) (UniProt O75030) (assay: MITF inhibitors by FRET titration, dose response, biochemical, high throughput (AID 1259375;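 further: FRET between CFP-tagged and YFP-tagged MITF protein partners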)). Conditions: FRET biochemical assay, MITF inhibition.
Sequence of Microphthalmia-associated transcription factor (Homo sapiens) (O75030 whole entry, looked up): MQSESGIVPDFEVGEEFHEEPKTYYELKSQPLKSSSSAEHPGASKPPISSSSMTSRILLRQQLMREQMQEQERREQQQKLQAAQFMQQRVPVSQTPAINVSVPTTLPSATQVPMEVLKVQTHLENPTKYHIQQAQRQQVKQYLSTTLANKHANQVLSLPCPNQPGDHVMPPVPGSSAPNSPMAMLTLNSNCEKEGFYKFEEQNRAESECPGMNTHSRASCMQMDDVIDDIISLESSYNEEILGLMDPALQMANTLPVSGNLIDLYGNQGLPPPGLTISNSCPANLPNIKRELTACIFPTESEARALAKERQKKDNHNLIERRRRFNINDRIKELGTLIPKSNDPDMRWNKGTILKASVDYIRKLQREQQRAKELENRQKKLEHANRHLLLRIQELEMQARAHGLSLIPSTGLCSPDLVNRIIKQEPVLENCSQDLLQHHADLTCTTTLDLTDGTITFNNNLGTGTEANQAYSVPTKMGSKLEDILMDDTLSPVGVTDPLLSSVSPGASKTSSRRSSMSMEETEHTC
CC[C@H](C)[C@@H]1NC(=O)[C@H]2CN(C(=O)NCc3ccccc3)CCN2C1=O was tested, and the IC50 was > 6.48 µM (inactive).
CCc1ccc(CN2CCN(Cc3cc(OC)c(O)c(OC)c3)CC2)cc1 was tested, and the IC50 was > 5.79 µM (inactive).
CC(C)[C@@H]1NC(=O)[C@H]2CN(C(=O)NC3CCCCC3)CCN2C1=O was tested, and the IC50 was > 6.48 µM (inactive).
In the case of NC(=O)COC(=O)/C=C/c1ccc(I)o1, the IC50 is reported as > 7.27 µM (inactive).
For O=C(/C=C/c1ccco1)NCCCCCCNC(=O)/C=C/c1ccco1, the IC50 was > 6.48 µM (inactive).
COc1cc(/C=N/N=C2\NC(=O)C(CC(=O)O)S2)ccc1OCc1ccc(C)cc1 (centres undefined) was tested, and the IC50 was > 6.48 µM (inactive).
O=C1OC(c2ccc(Cl)cc2Cl)=N/C1=C\c1ccc([N+](=O)[O-])o1 was tested, and the IC50 was > 6.05 µM (inactive).
With COC(=O)CCc1cc2c(C)cc(=O)oc2cc1OCc1ccc(C)cc1 the IC50 was > 6.48 µM (inactive).
C[C@@H]1NC(=O)[C@H]2CN(C(=O)NCc3ccccc3)CCN2C1=O was tested, and the IC50 was > 6.48 µM (inactive).
For O=C(NC1CCCCC1)N1CCN2C(=O)[C@@H]3CSCN3C(=O)[C@H]2C1, the IC50 was > 6.48 µM (inactive).
O=C(Cn1cc(C(=O)c2ccco2)c2ccccc21)NCc1cccnc1 was tested, and the IC50 was > 6.48 µM (inactive).
Cn1nnc(-c2ccc(Nc3nccc(-c4ccc5nc(C6CC6)[nH]c(=O)c5c4)n3)cc2)n1 was tested, and the IC50 was > 6.48 µM (inactive).
CC(=O)Nc1ccc(N2C(=O)c3ccccc3C2(O)Cc2ccccc2)cc1 (centres undefined) was tested, and the IC50 was > 6.48 µM (inactive).
CN1C(=O)[C@H]2CN(C(=O)NC3CCCCC3)CCN2C(=O)[C@@H]1CO was tested, and the IC50 was > 6.48 µM (inactive).
For C[C@H]1C(=O)N2CCN(C(=O)NCc3ccccc3)C[C@@H]2C(=O)N1C, the IC50 was > 6.48 µM (inactive).
In the case of Nc1cc(Br)cnc1N, the IC50 is reported as > 8.62 µM (inactive).
COc1ccc(CN2CCN(Cc3cccc(Cl)c3)CC2)cc1Br was tested, and the IC50 was > 6.11 µM (inactive).
Work on O=C(O)c1cc([N+](=O)[O-])cc2c1-c1c(cc([N+](=O)[O-])cc1[N+](=O)[O-])/C2=C/c1ccco1 yielded an IC50 of 1.77 µM.
Work on Nc1ccc(O)c(C(=O)O)c1 yielded an IC50 of 2.52 µM.
With O=C(O)c1cc(-n2cccc2)ccc1Cl the IC50 was > 6.48 µM (inactive).
O=C(NC1CCCCC1)N1CCN2C(=O)[C@@H]3C[C@@H](O)CN3C(=O)[C@H]2C1 was tested, and the IC50 was > 6.48 µM (inactive).
In the case of CCN(CC)C(=S)NC(=O)/C=C/c1ccco1, the IC50 is reported as > 6.48 µM (inactive).
Cc1ncn(-c2ccc(N(C)c3ncc4cccc(-c5ccn[nH]5)c4n3)cc2)n1 was tested, and the IC50 was > 6.48 µM (inactive).
With NC(=O)c1ccc2nc(-c3cccs3)sc2c1 the IC50 was > 6.18 µM (inactive).
O=C(CCCCC1SCC2NC(=O)NC21)NC1(c2ccc(F)cc2)CCCC1 (centres undefined) was tested, and the IC50 was > 6.48 µM (inactive).
For O=C(O)c1ccc(CS(=O)(=O)c2ccccc2)o1, the IC50 was > 6.48 µM (inactive).
With O=C(NC1CCN(Cc2ccccc2)CC1)c1ccc2nc(-c3cccs3)sc2c1 the IC50 was > 6.38 µM (inactive).
For O=C(O)COc1ccc(-n2cccc2)cc1, the IC50 was > 6.48 µM (inactive).
With O=C(/C=C/c1ccco1)Nc1nnc(-c2ccco2)s1 the IC50 was > 6.48 µM (inactive).
With CCC[C@@H]1NC(=O)[C@H]2CN(C(=O)NCc3ccccc3)CCN2C1=O the IC50 was > 6.48 µM (inactive).
COCCNC(=O)COC(=O)c1cc(-c2ccco2)nc2ccccc12 was tested, and the IC50 was > 6.59 µM (inactive).
With Cc1ccc(C)n1C(CC(=O)O)c1ccsc1 (centres undefined) the IC50 was > 6.76 µM (inactive).
For Cc1cccc(C(=O)Nc2c3c(nn2-c2ccc(F)cc2)CSC3)c1, the IC50 was > 5.53 µM (inactive).
In the case of Cc1cccc(OCC(=O)N2CCN(Cc3cccc(Br)c3)CC2)c1, the IC50 is reported as > 6.48 µM (inactive).
In the case of Cc1cc(C)n(C(=O)/C=C/c2ccco2)n1, the IC50 is reported as > 6.48 µM (inactive).
With O=C(O)c1coc(CNC(=O)c2cocc2C(=O)O)c1 the IC50 was > 6.48 µM (inactive).
For O=S(=O)(N=S(=O)(/C=C/c1ccccc1)c1ccccc1)c1ccccc1 (centres undefined), the IC50 was > 5.36 µM (inactive).
CSc1ccc(C(=O)O)s1 was tested, and the IC50 was > 10.2 µM (inactive).
With O=C(c1cccc(F)c1)N1CCN(Cc2ccncc2)CC1 the IC50 was > 5.66 µM (inactive).
With O=C(O)c1cc(S(=O)(=O)Nc2ccncc2)ccc1O the IC50 was > 7.05 µM (inactive).
For CCc1ccc(NC(=O)CCc2nc(C3=CCN(C)CC3)no2)cc1, the IC50 was > 6.48 µM (inactive).
In the case of Cc1nnc(CNC(=O)c2ccc(-n3cccc3)cc2)o1, the IC50 is reported as > 6.48 µM (inactive).
O=C(CN1C(=O)NC2(CCCCCC2)C1=O)NC(=O)NCc1ccco1 was tested, and the IC50 was > 7.16 µM (inactive).
CCOC(=O)c1cc(N2C(=O)C3C4C=CC(C4)C3C2=O)ccc1Cl (centres undefined) was tested, and the IC50 was > 6.48 µM (inactive).
Cc1ccc(O)c(NC(=S)NC(=O)/C=C/c2ccco2)c1 was tested, and the IC50 was > 6.48 µM (inactive).
In the case of CCCOc1ccc(N)cc1N, the IC50 is reported as > 6.22 µM (inactive).
N/C(=N\[N+](=O)[O-])N/N=C\c1ccc(-c2ccc(O)c(C(=O)O)c2)o1 gave an IC50 of 4.95 µM.
CN(C)[C@@H]1C(=O)C(C(N)=O)=C(O)[C@@]2(O)C(=O)C3=C(O)c4c(O)cccc4[C@@](C)(O)[C@H]3[C@H](O)[C@@H]12 gave an IC50 of 4.11 µM.
With Cc1cc(C)n2nc(N)c(N)c2n1 the IC50 was > 11.6 µM (inactive).
In the case of Cc1cc(C(=O)O)ccc1-c1ccc(/C=C2/NC(=O)NC2=O)o1, the IC50 is reported as > 6.48 µM (inactive).
In the case of N[C@@H](C(=O)N[C@@H]1C(=O)N2C(C(=O)O)=C(CSC3CNNN3)CS[C@H]12)c1ccc(O)cc1 (some centres undefined) (tested in a mixture with another compound), the IC50 is reported as > 5.58 µM (inactive).
O=C(NCCN1CCOCC1)c1cccc(CN(C(=O)c2nc3ccc(-c4cn[nH]c4)cc3s2)C2CC2)c1 was tested, and the IC50 was > 6.48 µM (inactive).
For CN(C)CCNc1nc(C2COc3ccccc3O2)nc2ccc(-c3cn[nH]c3)cc12 (centres undefined), the IC50 was > 6.48 µM (inactive).
With CC(C)C[C@@H]1NC(=O)[C@H]2CN(C(=O)NCc3ccccc3)CCN2C1=O the IC50 was > 6.48 µM (inactive).
In the case of Cc1c(NC(=O)C(C)OC(=O)c2cc3c(s2)CCC3)c(=O)n(-c2ccccc2)n1C (centres undefined), the IC50 is reported as > 6.7 µM (inactive).
In the case of CCCCNCCOc1ccccc1OCC, the IC50 is reported as > 6.48 µM (inactive).
For COC(C)(C)CNC(=O)C1CCN(C2CCN(Cc3cccc(C)n3)CC2)CC1, the IC50 was > 6.48 µM (inactive).
O=C(O)c1cc(S(=O)(=O)Nc2ccc3cn[nH]c3c2)ccc1O was tested, and the IC50 was > 7 µM (inactive).
C[C@H]1NC(=O)[C@H]2CN(C(=O)NC3CCCCC3)CCN2C1=O was tested, and the IC50 was > 6.48 µM (inactive).
For O=S(=O)(O)c1cc(S(=O)(=O)O)c2cc(O)c(S(=O)(=O)O)cc2c1, the IC50 was > 6.48 µM (inactive).
In the case of Cc1noc(C2CN(C(=O)c3ccc(-n4cccc4)cc3)C2)n1, the IC50 is reported as > 6.48 µM (inactive).
With OC[C@H]1OC([S-])[C@H](O)[C@@H](O)[C@@H]1O.[Au+] (some centres undefined) the IC50 was > 6.48 µM (inactive).
With O=C(/C=C/c1ccco1)NC(=S)Nc1cccc(C(=O)O)c1 the IC50 was > 6.48 µM (inactive).
With O=C(O)c1cccc(-n2cccc2/C=C2/NC(=O)N(c3ccc(Cl)cc3)C2=O)c1 the IC50 was > 6.48 µM (inactive).
With O=C(/C=C/c1ccco1)Nc1c[nH]c(=O)[nH]c1=O the IC50 was > 6.48 µM (inactive).
In the case of C[C@@H](OCc1ccccc1)[C@@H]1NC(=O)[C@H]2CN(C(=O)NC3CCCCC3)CCN2C1=O, the IC50 is reported as > 6.48 µM (inactive).
For Cc1nc(C)n(-c2ccc(Nc3cc(-n4cc(N(c5cccnc5)c5cccnc5)cn4)ccn3)cc2)n1, the IC50 was > 6.48 µM (inactive).
In the case of CCc1ccc(CN2CCN(C(C)C)CC2)cc1, the IC50 is reported as > 6.89 µM (inactive).
With CN(CCc1ccccn1)Cc1ccc(F)cc1 the IC50 was > 6.59 µM (inactive).
